The text below walks through data of publication PMC4680857, “Rat and human STINGs profile similarly towards anticancer/antiviral compounds” (Scientific Reports, 2015).

For assay [1], the system named is hSTING haplotypes with residue 230 mutations. Nature of the assay: IFN-β luciferase assay, residue 230 mutations in hSTING haplotypes. It is filed as cell-based, human. Conditions: 2′3′-cGAMP stimulation (Fig. 5c).
The target in assay [2] is T1, rSTING CTD (residues 155–341) (Rattus norvegicus, UniProt F1M391).
T1 construct: rSTING (residues 155–341); His tag (TEV protease-cleavable) (N); made in house; host or cells: Escherichia coli BL21 (DE3)
T1 sequence (F1M391 155-341): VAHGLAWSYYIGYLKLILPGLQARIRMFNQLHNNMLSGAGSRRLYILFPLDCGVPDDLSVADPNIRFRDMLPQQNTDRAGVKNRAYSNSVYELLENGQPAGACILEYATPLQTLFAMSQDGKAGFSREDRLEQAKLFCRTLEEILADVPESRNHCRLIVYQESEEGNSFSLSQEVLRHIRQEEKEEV
Nature of the assay: ITC binding to rSTING-CTD.

The target in the next assay is T2, rSTING T230I (Rattus norvegicus, UniProt F1M391, T230I).
T2 construct: rSTING (residues 155–341); His tag (TEV protease-cleavable) (N); made in house; host or cells: Escherichia coli BL21 (DE3)
T2 sequence (F1M391 155-341 T230I): T1 sequence (F1M391 155-341) with T76I
Nature of the assay: ITC binding to rSTING T230I.

The target of the next assay is T3, rSTING T230L (Rattus norvegicus, UniProt F1M391, T230L).
T3 construct: rSTING (residues 155–341); His tag (TEV protease-cleavable) (N); made in house; host or cells: Escherichia coli BL21 (DE3)
T3 sequence (F1M391 155-341 T230L): T1 sequence (F1M391 155-341) with T76L
Nature of the assay: ITC binding to rSTING T230L.

In assay [3] the target is T4, hSTING CTD (residues 155–341) (Homo sapiens, UniProt Q86WV6, G230A/H232R).
T4 construct: hSTING (residues 155–341); His tag (TEV protease-cleavable) (N); made in house; host or cells: Escherichia coli BL21 (DE3)
Nature of the assay: ITC binding to hSTING-CTD.

For the next assay, the system named is hSTING G230I variant. Also on record: method as in Gao et al. [35]. Conditions: ref Gao et al. [35]; cited from earlier work.
Assay [4] relates to hSTING with A230 replaced by Ile or Leu. Nature of the assay: ITC binding to hSTING mutants (Fig. S6). Also on record: species or system human.

Numbering of substitutions follows the chain as printed. Read-outs that look alike come from different tables or passages of the source.

What is called Kd is the concentration at which binding is half-saturated. Higher therefore signals a looser complex.

T4 sequence (Q86WV6 155-341 G230A/H232R): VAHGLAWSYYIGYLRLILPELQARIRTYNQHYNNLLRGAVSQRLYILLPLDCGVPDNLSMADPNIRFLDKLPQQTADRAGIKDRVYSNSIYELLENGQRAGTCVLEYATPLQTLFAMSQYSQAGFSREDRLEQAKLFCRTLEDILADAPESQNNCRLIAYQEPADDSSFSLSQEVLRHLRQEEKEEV

On to `Nc1nc2c(ncn2[C@@H]2O[C@@H]3COP(=O)(O)O[C@H]4[C@@H](O)[C@H](n5cnc6c(N)ncnc65)O[C@@H]4COP(=O)(O)O[C@@H]2[C@@H]3O)c(=O)[nH]1` [2′3′-cGAMP, cyclic GMP-AMP with 2′5′ and 3′5′ phosphodiester linkage], for which, in assay [1], the “cGAMP-induced IFN-β production, differences between residue 230 mutations” value is given as “no differences”. For the same compound, in assay [2], the dissociation constant (Kd) was determined as 120 ± 30 nM and the “binding affinity (in words)” value is reported as “high binding affinities”.
Turning to `Nc1nc2c(ncn2[C@@H]2O[C@@H]3COP(=O)(O)O[C@H]4[C@@H](O)[C@H](n5cnc6c(N)ncnc65)O[C@@H]4COP(=O)(O)O[C@H]3[C@H]2O)c(=O)[nH]1` [3′3′-cGAMP], binding in assay [2] (ITC, 25 °C, WT rSTING-CTD (T230)) was put at a Kd of 550 ± 110 nM. Also, the “binding affinity (in words)” value in assay [2] (ITC, rSTING CTD) is “high binding affinities”.
With `Cc1ccc2c(=O)c3cccc(CC(=O)O)c3oc2c1C` [DMXAA, 5,6-Dimethylxanthenone 4-acetic acid], the ΔH on rSTING T230I (rSTING T230I) is -3.86 ± 0.10 kcal/mol; on rSTING T230L, -2.31 ± 0.07 kcal/mol; in assay [2] (ITC, rSTING T230(WT)), -2.77 ± 0.09 kcal/mol. Moreover, the ΔS came to 16.0 cal/mol/deg on rSTING T230I (rSTING T230I); 16.6 cal/mol/deg on rSTING T230L; 11.7 cal/mol/deg in assay [2] (ITC, rSTING T230(WT)). For the same compound, the “binding affinity greater than that for WT rSTING” value on rSTING T230I (rSTING T230I vs WT rSTING) was 50 fold. Moreover, the “binding affinity (in words)” value in assay [3] is listed as “none or only weak affinity”; in assay [2] (ITC, rSTING CTD), “none or only weak affinity”. The “response of STING variant to compound” value in the assay on hSTING G230I variant is listed as “can respond”. Also, in assay [4], the “binding by ITC (in words)” value is given as “detectable binding”.
